Laboratory results taken from patent publication US8008354B2, “Death receptor sensitizing compounds and methods of use therefor” (Burnham Institute for Medical Research, priority 2006, dated 2011).

How the values were obtained:
PPC-1 cells = assay: Nuclear fragmentation of suspension PPC-1 cells overexpressing FLIP, CrmA or BclXL; type: cell-based, human; details: 5809354 60 μM or staurosporine 0.5 μM, thirty hours
Protocol: (§1) FIG. 15. 5809354 sensitizes cells to anoikis through a caspase 8 dependent mechanism. (A) PPC-1 cells (5×10^4) were cultured under suspension conditions overnight and then treated with 5809354 in the presence or absence of the pan-caspase inhibitor z-VAD-fink (100 μM). Thirty hours after incubation, anoikis was determined by flow cytometry to detect cell surface annexin V expression and PI uptake. Data represents the mean±SEM percent of viable cells or colonies compared to untreated controls. (B) PPC-1 cells (5×10^4) were cultured in suspension conditions overnight and then treated with 5809354 (60 μM). At increasing times after treatment, caspase activation was detected with FITC-labeled peptides that bind preferentially and irreversibly to caspase 3/7, 8, or 9. Caspase activation was monitored by flow cytometry to quantify the percentage of fluorescently labeled cells. […] At increasing times after incubation, total cellular protein was isolated and analyzed by SDS-PAGE immunoblotting using anti-caspase 8 and anti-actin antibodies. * indicates cleaved caspase 8. […] Thirty hours after incubation, apoptosis was measured by cell surface annexin V expression and PI uptake. […] Ten hours after incubation, cell viability was measured using the MTS assay. […] EGFP expression and nuclear morphology were analyzed by fluorescence microscopy. […]

solid tumor cell lines = assay: MTT cell viability of a spectrum of tumor cell lines with or without CH-11; type: cell-based; details: 10 tumor cell lines, CH-11 100 ng/mL, MTT 24 hours
Protocol: FIG. 3. Compounds 6094911, 5809354, and 5569100 sensitize a spectrum of tumor cells to CH-11 anti-FAS antibody. Solid tumor cell lines were seeded overnight in 96 well plates at a density of 1×10^4 cells per well. The next day, cells were treated with increasing concentrations of compound 6094911, 5809354, or 5569100 with (square) or without (circle) CH-11 antibody (100 ng/mL). Cell viability was measured 24 hours later by MTT assay. Cell viability is expressed as a mean percentage of untreated cells+SD (n=3).
Cell death assays. Cell viability was measured by MTT and MTS assays, essentially as described in Schimmer et al. (2004). Absorbance readings were plotted against a standard curve to derive the corresponding cell number, and cell viability was expressed as a percentage relative to untreated cells. Apoptosis was measured by flow cytometric analysis of Annexin V surface expression after staining cells with FITC-anti-Annexin V and propidium iodide (PI) (Biovision, Mountain View, Calif.), as described in Pederson et al. (2002).
To assess the spectrum of activity of the small molecule FAS sensitizers, an additional 9 malignant cell lines derived from breast, ovarian, and prostate carcinomas were treated with increasing concentrations of the sensitizers in the presence or absence of CH-11. […]

[1] = test system: E1A-transformed wild-type (WT) and caspase 8-/- MEFs; assay: MTS viability of wild-type and caspase 8-/- MEFs in suspension conditions; type: cell-based; details: ten hours
Protocol: as §1

Compound | effect of overexpressed FLIP, CrmA or BclXL on anoikis (PPC-1 cells) | tumor cell lines sensitized to CH-11 (solid tumor cell lines) | anoikis of caspase 8-deficient MEFs compared to wild-type [1]
CN[C@@H]1C[C@H]2O[C@@](C)([C@@H]1OC)n1c3ccccc3c3c4c(c5c6ccccc6n2c5c31)C(=O)NC4 [staurosporine, reference compound] | overexpression of BclXL, but not CrmA, protected |  | 
CC(=O)CC(=O)Nc1ccc(Cl)c(C(F)(F)F)c1 [compound 6094911, N-[4-chloro-3-(trifluoromethyl)phenyl]-3-oxobutanamide] |  | 4 of 10 | 
4-(4-chloro-2-methylphenoxy)-N-hydroxybutanamide [compound 5809354] | attenuated 5809354-mediated anoikis | sensitized the same tumor lines with the exception of HT29 | resistant
